Laboratory results published in patent US12514859B2, “Pyrazole pyrimidine derivative and uses thereof” (Yissum Research Development Company of the Hebrew …, priority 2015, dated 2026).

What was measured:
IRAK1 [1] = molecular target: T1, IRAK1 (Homo sapiens, UniProt P51617); assay: Kd measurements for the interaction with IRAK1; assay type: binding
T1 construct: RKO cells were incubated for 16 hours at 37° C. with the indicated concentrations of compounds; endogenous in cells; host or cells: RKO cells, stimulated with TNFα

IRAK1 [2] = molecular target: T1, IRAK1; assay: IRAK1 inhibition in RKO cells treated with TNFα (Western blot); assay type: cell-based; conditions: RKO cells, Western blot; A51 1 μM, A14 2 μM, 16 hours, TNFα 100 units/ml
Procedure: (§1) Cells were harvested and analyzed by Western blot. Blots were incubated with the following antibodies: Phospho-IRAK1 (Thr209), (A1074, AssayBiothechnology; 1/1,000), Phospho-IKKα/β (Ser176/180) (16A6, Cell Signaling; 1/1,000), IKKα (2682, cell signaling; 1/1,1000), IKK β (2370, cell signaling; 1/1,1000), Phospho-c-Jun (Ser 63) (9261, cell signaling; 1/1,1000), p53 (DO-1&1801 hybridoma mix; dilution of 1:20 of supernatants from each), CKIα (C-19; 1/1,000; Santa Cruz Biotechnology) and phospho-histoneH2AX (S139; 1/1,000; Millipore). Secondary antibodies were HRP-linked goat anti-mouse, goat anti-rabbit and rabbit anti-goat antibodies (all 1/10,000; Jackson). Inhibition of Phospho-IRAK1, Phospho-IKKα/β and Phospho-c-Jun indicate IRAK1 inhibition. p53 stabilization and phosphorylation of H2AX (γH2AX), a marker of DNA damage, indicative of CKIα kinase inhibition. CKIα protein levels serves as a loading control.
as §1, with “IRAK1 Inhibition with compounds of the invention. RKO cells were incubated for 16 hours at 37° C. with the indicated concentrations of compounds of the invention A51 (1 μM) and A14 (2 μM) (FIG. 10). At the indicated time points, RKO were treated with TNFα (100 units/ml). Cells” for “Cells”, “IKKβ” for “IKK β”, “Blots were developed using ECL (GE Healthcare). […] Also shown is” for “Inhibition of Phospho-IRAK1, Phospho-IKKα/β and Phospho-c-Jun indicate IRAK1 inhibition.”

AML mice (MLL-AF9) = assay: MLL-AF9 acute myeloid leukemia (AML) mouse model; assay type: in vivo; conditions: oral gavage 20 mg/kg for 3 days then 10 mg/kg/day for 6 days
Procedure: Generation of a mouse model of acute myeloid leukemia (AML) (FIG. 6) and treatment with the CKIα inhibitor A14 (FIGS. 7, 8 and 9) or A51 (FIGS. 11 and 12). To generate the MLL-AF9 Acute myeloid leukemia (AML) model, bone marrow (BM) cells from 10 week old wild type mouse were extracted and enriched for cKit expressing cells (EasySep #18757) and incubated overnight in RPMI supplemented with 15% FCS L-Glutamine, Pen/Strep (Biological Industries, Israel) and stem cell factor (SCF), IL-3, IL-6 and TPO (Peprotech). The culture was infected with MSCV-MLL-AF9-IRES-GFP retrovirus construct containing supernatant medium for 4 hours, then growth medium was added and infected cells were incubated at 37° C. for additional 24 h. The culture was then injected I.V. into sub lethally irradiated (500 rad) mice. Upon detectable steady increase of GFP expressing cells in the mice peripheral blood (checked by FACS analysis) and rise in leukocyte numbers and immature cells (detected by Wright-Giemsa stained blood films), mice were sacrificed and their BM was transferred (1st BMT) to sublethally irradiated WT hosts. Upon emergence of AML disease mice were sacrificed and 50,000 BM cells were transplanted (2nd BMT) into WT host mice. GFP expressing cells were monitored in the peripheral blood and upon detecting >10% GFP^+ in PB (day 11 after BMT) mice were treated with A14 inhibitor (FIG. 7A). A14 was administered by oral gavage once a day at a dose of 20 mg/kg for 3 days followed by 10 mg/kg/day for 6 more days. The inhibitor was dissolved in 1% methyl cellulose with 0.1% Tween 80 and 0.2% Poly-ethylene glycol (Vehicle). Control mice were treated with the vehicle only. Mice were monitored daily for cachexia, lethargy, and ruff coats, and moribund mice were sacrificed. For a single dose experiment (FIG. 11A) A51 was administered by oral gavage at a single dose of 20 mg/kg and mice were sacrificed 16 hours following treatment.
Complete blood counts. Peripheral venous blood was obtained from the mouse facial vein using standard techniques and analyzed using the auto hematology analyzer BC-2800 (Mindray) per manufacturer's instructions.
Single-dose treatment effect of a CKI inhibitor in AML mice and PD-L1 expression. AML mice were prepared by inoculating MLL-AF9 oncogene-transduced bone marrow cells to C57/BL6 mice. MLL-AF9 fusion represents one of a poor prognosis human AML induced by chromosomal translocation. 30 days after leukemia inoculation, the recipient mice have high white blood cells (WBC) counts (×10 higher than a normal mouse), and harbor >95% leukemia blasts in the bone marrow and 50% of the peripheral WBC in these mice are AML blasts. These mice have splenomegaly and their bones are pale and fragile due to the acute leukemia (FIG. 12).

T1 sequence (P51617 whole entry): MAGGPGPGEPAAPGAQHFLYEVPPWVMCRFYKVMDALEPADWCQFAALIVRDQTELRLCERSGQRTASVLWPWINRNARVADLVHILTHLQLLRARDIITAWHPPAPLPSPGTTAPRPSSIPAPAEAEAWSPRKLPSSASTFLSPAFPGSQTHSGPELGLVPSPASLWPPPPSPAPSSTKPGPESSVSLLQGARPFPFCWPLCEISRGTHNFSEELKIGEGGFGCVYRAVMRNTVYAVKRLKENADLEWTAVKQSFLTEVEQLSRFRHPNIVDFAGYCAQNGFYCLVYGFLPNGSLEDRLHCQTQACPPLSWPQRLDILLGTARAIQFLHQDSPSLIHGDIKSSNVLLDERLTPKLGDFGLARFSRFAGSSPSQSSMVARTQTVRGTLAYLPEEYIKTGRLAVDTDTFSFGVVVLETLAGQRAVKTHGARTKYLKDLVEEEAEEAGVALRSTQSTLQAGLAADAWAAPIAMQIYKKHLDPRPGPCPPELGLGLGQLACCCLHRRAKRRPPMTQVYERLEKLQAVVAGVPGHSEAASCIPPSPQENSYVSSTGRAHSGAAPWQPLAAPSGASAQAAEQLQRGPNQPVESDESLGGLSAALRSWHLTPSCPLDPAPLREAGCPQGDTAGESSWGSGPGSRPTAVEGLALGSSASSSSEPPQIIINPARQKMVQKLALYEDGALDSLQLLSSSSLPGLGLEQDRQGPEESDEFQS

With `Cn1ncc(-c2ccnc(N[C@H]3CC[C@H](N)CC3)n2)c1CC1CC1` [Compound A14, (1R, 4R)—N^1-(4-(5-(cyclopropylmethyl)-1-methyl-1H-pyrazol-4-yl)pyrimidin-2-yl)cyclohexane-1,4-diamine] the Kd (IRAK1 [1]) was 0.011 µM, the “IRAK1 activation and activation of the IRAK1 target IKK (in words)” value (IRAK1 [2]) was “inhibition of IRAK1 activation” and the “progression of AML, GFP+ leukocytes in peripheral blood (in words)” value (AML mice (MLL-AF9)) was “inhibitory effect”.
